Source: patent US20260242391A1 (priority 2023, published 2026)
Where two headings read alike, the source gives them in different places.

Columns and labels:
HL-60 [1] = system: HL-60
HL-60 [2] = test: HL-60 differentiation potency; type: cell-based; conditions: Homo sapiens
MDS-L cells [3] = conditions: for Induction of differentiation of MDS-L cells (GlyA positivity), in words: anti-GlyA immunopositivity; for EC50: read-out: MDS-L GlyA induction EC50
Method: MDS-L differentiation assay.
(§1) MDS-L were cultured in RPMI (17-105-CV, Corning) without phenol red and supplemented with 2 mM glutamine and 10% FBS. Cells first expanded in IL-3 until 70% confluence then pre-conditioned for 14 days with IL-3 (200-03, PeproTech), GCSF (300-23, PeproTech), and EPO (287-TC, R&D Systems) to promote erythroid and myeloid differentiation. A density of 10,000 cells per well were used in phenotypic assays. MDSL cells were spun and treatment media was replaced with media containing APC Anti-CD235a (GlyA) (551336, BD Biosciences) (1.25 μL per 50 L test) and incubated for 1 hour at 4° C. Cells were washed then counter stained with SYTOX-Green 1 M per 100 L prior to flow cytometry analysis. Dose response and pharmacological assays were analyzed using a ZE5 Cell Analyzer (BioRad) equipped with Everest software. Single, live, cells were analyzed for GlyA expression using FlowJo v10.7.2 software.

HL-60 [4] = system: HL-60; remark: listed apart in the source
HL-60 [5] = test: HL-60 differentiation potency; type: cell-based; conditions: Homo sapiens; remark: listed apart in the source
MDS-L cells [6] = test: cells; conditions: read-out: MDS-L GlyA induction EC50
Method: MDS-L differentiation assay.
as §1

in vitro = conditions: human
[7] = MDS-L cells, anti-CD235a (GlyA) flow cytometry

EC50 (HL-60 [2]) [nM] | IC50 (in vitro) [nM] | Compound | also measured
156 |  | C[C@H]1[C@@H](OC[C@H]2CC[C@@H](C(=O)N[C@H]3CC[C@@H](C(=O)O)C3)CC2)O[C@@H]2O[C@@]3(C)CC[C@H]4[C@H](C)CC[C@@H]1[C@@]24OO3 [Compound 267, (1R,3S)-3-((1R,4R)-4-((((3R,5aS,6R,8aS, 9R,10S,12R, 12aR)-3,6,9-trimethyldeca-hydro-12H-3,12-epoxy[1,2]dioxepino[4,3-i]isochromen-10-yl)oxy)methyl)cyclohexane-1-carboxamido) cyclopentane-1-carboxylic acid] | IC50 (HL-60 [1]): 20000 nM
 |  | C[C@@H]1CC[C@H]2[C@@H](C)C(=O)O[C@@H]3O[C@@]4(C)CC[C@@H]1[C@]32O4 [2-deoxy-artemisinin] | Induction of differentiation of MDS-L cells (GlyA positivity), in words (MDS-L cells [3]; MDS-L cells): inactive
16.2 |  | CC(C)[C@H](NC(=O)Cc1ccc(O[C@H]2O[C@@H]3O[C@@]4(C)CC[C@H]5[C@H](C)CC[C@@H]([C@H]2C)[C@@]35OO4)cc1)C(=O)O [Compound 302, (2-(4-(((3R,5aS,6R,8aS, 9R,10S,12R, 12aR)-3,6,9-trimethyldeca-hydro-12H-3,12-epoxy[1,2]dioxepino[4,3-i]isochromen-10-yl)oxy)phenyl)acetyl)-L-valine] | IC50 (HL-60 [1]): 20000 nM
 |  | Cc1c(-c2ccc(-c3ccccc3F)cc2)nc2ccc(F)cc2c1C(=O)O [Brequinar] | Induction of differentiation of MDS-L cells (GlyA positivity), in words (MDS-L cells [3]; MDS-L cells): efficacious at inducing differentiation
 |  | CCCCCCCCCCCCCC(=O)O[C@@H]1[C@@H](C)[C@@]2(O)[C@@H](C=C(CO)C[C@]3(O)C(=O)C(C)=C[C@@H]23)[C@@H]2C(C)(C)[C@]12OC(C)=O [phorbol 12-myristate 13-acetate (PMA), phorbol 12-myristate 13-acetate] | Induction of differentiation of MDS-L cells (GlyA positivity), in words (MDS-L cells [3]; MDS-L cells): efficacious at inducing differentiation
 |  | CC1=C(/C=C/C(C)=C/C=C/C(C)=C/C(=O)O)C(C)(C)CCC1 [ATRA, retinoic acid] | Cytotoxicity as readout by live dead cell gating (MDS-L cells [3]; MDS-L cells): minimal cytotoxicity
 |  | C[C@H]1[C@@H](Oc2cc(F)c(CC(=O)O)c(F)c2)O[C@@H]2O[C@@]3(C)CC[C@H]4[C@H](C)CC[C@@H]1[C@@]24OO3 [Compound 22, 2-(2,6-difluoro-4-(((3R,5aS,6R, 8aS,9R,10S,12R, 12aR)-3,6,9-trimethyldeca-hydro-12H-3,12-epoxy[1,2]dioxepino[4,3-i]isochromen-10-yl)oxy)phenyl) acetic acid] | IC50 (HL-60 [4]): 20000 nM; EC50 (HL-60 [5]): 131 nM
 |  | C[C@H]1[C@@H](Oc2ccc(C(=O)C(=O)O)cc2)O[C@@H]2O[C@@]3(C)CC[C@H]4[C@H](C)CC[C@@H]1[C@@]24OO3 [Compound 128, 2-oxo-2-(4-(((3R,5aS,6R,8aS, 9R,10S,12R, 12aR)-3,6,9-trimethyldeca-hydro-12H-3,12-epoxy[1,2]dioxepino[4,3-i]isochromen-10-yl)oxy)phenyl) acetic acid] | IC50 (HL-60 [4]): 20000 nM; EC50 (HL-60 [5]): 1220 nM
 |  | Artefenomel [Artefenomel (OZ-439)] | Maximal MDS-L GlyA fold induction (MDS-L cells [3]; [7]): 3.71 fold; EC50 (MDS-L cells [3]; [7]): 5650 nM
 |  | C[C@H]1[C@H](Oc2cc(F)c(CC(=O)O)c(F)c2)O[C@@H]2O[C@@]3(C)CC[C@H]4[C@H](C)CC[C@@H]1[C@@]24OO3 [Compound 14, 2-(2,6-difluoro-4-(((3R,5aS,6R, 8aS,9R,10R,12R, 12aR)-3,6,9-trimethyldeca-hydro-12H-3,12-epoxy[1,2]dioxepino[4,3-i]isochromen-10-yl)oxy)phenyl) acetic acid] | IC50 (HL-60 [4]): 20000 nM; EC50 (HL-60 [5]): 90.9 nM
 |  | C[C@H]1[C@H](OC(=O)CCC(=O)O)O[C@@H]2O[C@@]3(C)CC[C@H]4[C@H](C)CC[C@@H]1[C@@]24OO3 [Artesunate, artesunate] | Maximal MDS-L GlyA fold induction (MDS-L cells [3]; human): 7.51 fold; EC50 (MDS-L cells [6]): 850 nM
 |  | Arterolane [Arterolane (OZ-277)] | Maximal MDS-L GlyA fold induction (MDS-L cells [3]; [7]): 7.02 fold; EC50 (MDS-L cells [3]; [7]): 1740 nM
 |  | C[C@H]1[C@@H](O)O[C@@H]2O[C@@]3(C)CC[C@H]4[C@H](C)CC[C@@H]1[C@@]24OO3 [Dihydroartemisin, dihydro- artemisinin] | Maximal MDS-L GlyA fold induction (MDS-L cells [3]; human): 7.09 fold; EC50 (MDS-L cells [6]): 610 nM
 |  | C[C@H]1[C@@H](OCc2ccc(C(=O)O)cc2)O[C@@H]2O[C@@]3(C)CC[C@H]4[C@H](C)CC[C@@H]1[C@@]24OO3 [Artelinic acid (artelinate), artelinate] | Maximal MDS-L GlyA fold induction (MDS-L cells [3]; human): 7.26 fold; EC50 (MDS-L cells [6]): 30 nM
10.3 | 60 | CC(C)C(C(=O)O)c1ccc(O[C@H]2O[C@@H]3O[C@@]4(C)CC[C@H]5[C@H](C)CC[C@@H]([C@H]2C)[C@@]35OO4)c(F)c1 (stereo partly drawn) [Compound 266, 2-(3-fluoro-4-(((3R,5aS,6R,8aS, 9R,10S,12R, 12aR)-3,6,9-trimethyldeca-hydro-12H-3,12-epoxy[1,2]dioxepino[4,3-i]isochromen-10-yl)oxy)phenyl)-3-methylbutanoic acid] | 
108 | 4990 | C[C@H]1[C@@H](Oc2ccc(CC(=O)N[C@@H]3C[C@H](C(=O)O)C[C@H]3O)cc2)O[C@@H]2O[C@@]3(C)CC[C@H]4[C@H](C)CC[C@@H]1[C@@]24OO3 [Compound 299, (1S,3R,4R)-3-hydroxy-4-(2-(4-(((3R,5aS,6R,8aS, 9R,10S,12R, 12aR)-3,6,9-trimethyldeca-hydro-12H-3,12-epoxy[1,2]dioxepino[4,3-i]isochromen-10-yl)oxy)phenyl)acetamido) cyclopentane-1-carboxylic acid] | 
80.3 | 330 | C[C@H]1[C@@H](Oc2ccc(C(=O)N3C[C@H]4[C@@H]([C@H]3C(=O)O)C4(C)C)cc2)O[C@@H]2O[C@@]3(C)CC[C@H]4[C@H](C)CC[C@@H]1[C@@]24OO3 [Compound 190, (1R,2S,5S)-6,6-dimethyl-3-(4-(((3R,5aS,6R,8aS, 9R,10S,12R, 12aR)-3,6,9-trimethyldeca-hydro-12H-3,12-epoxy[1,2]dioxepino[4,3-i]isochromen-10-yl)oxy)benzoyl)-3-azabicyclo[3.1.0] hexane-2-carboxylic acid] | 
11400 | > 20000 | C[C@H]1[C@@H](O[C@H]2CC[C@@H](C(=O)NC3(C(=O)O)CC3)CC2)O[C@@H]2O[C@@]3(C)CC[C@H]4[C@H](C)CC[C@@H]1[C@@]24OO3 [Compound 262, 1-((1R,4s)-4-(((3R,5aS,6R,8aS, 9R,10S,12R, 12aR)-3,6,9-trimethyldeca-hydro-12H-3,12-epoxy[1,2]dioxepino[4,3-i]isochromen-10-yl)oxy)cyclohexane-1-carboxamido) cyclopropane-1-carboxylic acid] | 
524 | > 20000 | C[C@H]1[C@@H](OCc2ccc(C(=O)NC(C)(C)C(=O)O)cc2)O[C@@H]2O[C@@]3(C)CC[C@H]4[C@H](C)CC[C@@H]1[C@@]24OO3 [Compound 284, 2-methyl-2-(4-((((3R,5aS,6R,8aS, 9R,10S,12R, 12aR)-3,6,9-trimethyldeca-hydro-12H-3,12-epoxy[1,2]dioxepino[4,3-i]isochromen-10-yl)oxy)methyl)benzamido) propanoic acid] | 
35.1 | 110 | C[C@H]1[C@@H](Oc2ccc(C(=O)N[C@@H](CC3CCC3)C(=O)O)cc2)O[C@@H]2O[C@@]3(C)CC[C@H]4[C@H](C)CC[C@@H]1[C@@]24OO3 [Compound 205, (S)-3-cyclobutyl-2-(4-(((3R,5aS,6R,8aS, 9R,10S,12R, 12aR)-3,6,9-trimethyldeca-hydro-12H-3,12-epoxy[1,2]dioxepino[4,3-i]isochromen-10-yl)oxy)benzamido) propanoic acid] | 
10.3 | 30 | C[C@@H]1CC[C@H]2[C@@H](C)[C@](OCc3ccc(C(=O)O)cc3Cl)(C(F)(F)F)O[C@@H]3O[C@@]4(C)CC[C@@H]1[C@]32OO4 [Compound 196] | 
47.8 | 13400 | C[C@H]1[C@@H](OCc2ccc(C(=O)NC3CC4(C3)CC(C(=O)O)C4)cc2)O[C@@H]2O[C@@]3(C)CC[C@H]4[C@H](C)CC[C@@H]1[C@@]24OO3 (stereo partly drawn) [Compound 291, 6-(4-((((3R,5aS,6R,8aS, 9R,10S,12R, 12aR)-3,6,9-trimethyldeca-hydro-12H-3,12-epoxy[1,2]dioxepino[4,3-i]isochromen-10-yl)oxy)methyl)benzamido)spiro [3.3]heptane-2-carboxylic acid] | 
33.3 | 2400 | C[C@H]1[C@@H](Oc2ccc(C(=O)N[C@H]3CCC[C@H]3C(=O)O)cc2)O[C@@H]2O[C@@]3(C)CC[C@H]4[C@H](C)CC[C@@H]1[C@@]24OO3 [Compound 187, (1R,2S)-2-(4-(((3R,5aS,6R,8aS, 9R,10S,12R, 12aR)-3,6,9-trimethyldeca-hydro-12H-3,12-epoxy[1,2]dioxepino[4,3-i]isochromen-10-yl)oxy)benzamido) cyclopentane-1-carboxylic acid] | 
53.1 | > 20000 | C[C@H]1[C@@H](OCc2ccc(C(=O)O)c(OC(F)(F)F)c2)O[C@@H]2O[C@@]3(C)CC[C@H]4[C@H](C)CC[C@@H]1[C@@]24OO3 [Compound 298, 2-(trifluoro-methoxy)-4-((((3R,5aS,6R,8aS, 9R,10S,12R, 12aR)-3,6,9-trimethyldeca-hydro-12H-3,12-epoxy[1,2]dioxepino[4,3-i]isochromen-10-yl)oxy)methyl) benzoic acid] | 
66.5 | 5510 | C[C@H]1[C@@H](OCc2c(F)cc(C(=O)O)cc2Cl)O[C@@H]2O[C@@]3(C)CC[C@H]4[C@H](C)CC[C@@H]1[C@@]24OO3 [Compound 215, 3-chloro-5-fluoro-4-((((3R,5aS,6R,8aS, 9R,10S,12R, 12aR)-3,6,9-trimethyldeca-hydro-12H-3,12-epoxy[1,2]dioxepino[4,3-i]isochromen-10-yl)oxy)methyl) benzoic acid] | 
